From ChEMBL document CHEMBL5465560, “Selectivity Literature for EUbOPEN Chemogenomic Library” (2024)
Blank lines part the entries; values can stand above or below the molecule they belong to.

What was measured:
[1] = molecular target: T1, Inhibitor of nuclear factor kappa-B kinase subunit beta (Homo sapiens) (UniProt O14920); experiment: Selectivity interaction (Kinase panel (Z-LYTE Assay)) EUB0001632a IKBKB; conditions: at 10 µM
T1 sequence (whole entry): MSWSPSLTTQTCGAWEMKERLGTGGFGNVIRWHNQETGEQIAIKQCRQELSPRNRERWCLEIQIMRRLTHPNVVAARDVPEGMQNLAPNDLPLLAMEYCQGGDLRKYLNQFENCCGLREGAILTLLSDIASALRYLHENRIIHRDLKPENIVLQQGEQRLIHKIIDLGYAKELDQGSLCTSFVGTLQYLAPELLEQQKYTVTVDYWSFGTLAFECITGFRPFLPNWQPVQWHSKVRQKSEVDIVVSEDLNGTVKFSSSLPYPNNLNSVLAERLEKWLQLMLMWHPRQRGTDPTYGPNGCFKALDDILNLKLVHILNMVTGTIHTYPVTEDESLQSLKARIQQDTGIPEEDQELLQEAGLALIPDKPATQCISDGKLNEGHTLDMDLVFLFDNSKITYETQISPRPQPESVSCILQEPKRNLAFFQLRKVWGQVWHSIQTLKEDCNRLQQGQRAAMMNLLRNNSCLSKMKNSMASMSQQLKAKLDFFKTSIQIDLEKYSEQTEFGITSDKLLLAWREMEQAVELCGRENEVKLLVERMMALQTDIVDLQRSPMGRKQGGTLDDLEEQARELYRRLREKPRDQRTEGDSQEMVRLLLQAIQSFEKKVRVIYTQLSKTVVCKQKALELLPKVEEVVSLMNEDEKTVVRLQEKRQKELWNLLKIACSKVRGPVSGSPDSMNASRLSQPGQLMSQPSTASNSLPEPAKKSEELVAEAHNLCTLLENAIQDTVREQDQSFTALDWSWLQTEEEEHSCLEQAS

[2] = molecular target: Protein-tyrosine kinase 2-beta (Homo sapiens) (UniProt Q14289); experiment: Selectivity interaction (ProQinase) EUB0000171b PTK2B
[3] = molecular target: Mitogen-activated protein kinase kinase kinase kinase 4 (Homo sapiens, UniProt O95819); experiment: Selectivity interaction (Upstate Kinase Profiler service (Millipore)) EUB0000056c MAP4K4; conditions: at 1 µM
[4] = molecular target: Cyclin-dependent kinase 2/cyclin A (Homo sapiens) (UniProt P24941+P20248+P78396); experiment: Selectivity interaction (SelectScreen profiling (Invitrogen)) EUB0000607a CDK2; assay type: protein-complex assay; conditions: at 2 µM
[5] = molecular target: T2, NUAK family SNF1-like kinase 1 (Homo sapiens) (UniProt O60285); experiment: Selectivity interaction (KinomeScan (DiscoverX)) EUB0000666a NUAK1; conditions: at 10 µM
T2 sequence (whole entry): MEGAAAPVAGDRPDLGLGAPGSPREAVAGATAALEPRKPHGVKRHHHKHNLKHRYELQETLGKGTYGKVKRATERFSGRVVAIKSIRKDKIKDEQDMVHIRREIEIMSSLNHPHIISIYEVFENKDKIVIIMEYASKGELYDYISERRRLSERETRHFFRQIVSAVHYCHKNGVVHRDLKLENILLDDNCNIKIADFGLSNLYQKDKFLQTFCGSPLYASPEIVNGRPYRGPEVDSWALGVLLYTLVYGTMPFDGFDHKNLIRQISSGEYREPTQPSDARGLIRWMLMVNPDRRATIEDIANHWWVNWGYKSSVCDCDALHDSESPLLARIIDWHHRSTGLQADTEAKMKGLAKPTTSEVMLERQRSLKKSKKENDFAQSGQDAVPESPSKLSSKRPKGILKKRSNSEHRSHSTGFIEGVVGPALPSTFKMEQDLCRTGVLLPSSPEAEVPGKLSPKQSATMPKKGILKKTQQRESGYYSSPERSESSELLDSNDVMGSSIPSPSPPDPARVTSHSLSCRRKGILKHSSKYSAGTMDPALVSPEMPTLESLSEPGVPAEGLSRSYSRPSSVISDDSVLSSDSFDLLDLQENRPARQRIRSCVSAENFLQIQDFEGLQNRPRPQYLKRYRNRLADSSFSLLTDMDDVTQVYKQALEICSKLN

[6] = molecular target: T3, Mitogen-activated protein kinase kinase kinase 5 (Homo sapiens) (UniProt Q99683); experiment: Selectivity interaction (Kinase panel (DSF assay)) EUB0001558a MAP3K5
T3 sequence (whole entry): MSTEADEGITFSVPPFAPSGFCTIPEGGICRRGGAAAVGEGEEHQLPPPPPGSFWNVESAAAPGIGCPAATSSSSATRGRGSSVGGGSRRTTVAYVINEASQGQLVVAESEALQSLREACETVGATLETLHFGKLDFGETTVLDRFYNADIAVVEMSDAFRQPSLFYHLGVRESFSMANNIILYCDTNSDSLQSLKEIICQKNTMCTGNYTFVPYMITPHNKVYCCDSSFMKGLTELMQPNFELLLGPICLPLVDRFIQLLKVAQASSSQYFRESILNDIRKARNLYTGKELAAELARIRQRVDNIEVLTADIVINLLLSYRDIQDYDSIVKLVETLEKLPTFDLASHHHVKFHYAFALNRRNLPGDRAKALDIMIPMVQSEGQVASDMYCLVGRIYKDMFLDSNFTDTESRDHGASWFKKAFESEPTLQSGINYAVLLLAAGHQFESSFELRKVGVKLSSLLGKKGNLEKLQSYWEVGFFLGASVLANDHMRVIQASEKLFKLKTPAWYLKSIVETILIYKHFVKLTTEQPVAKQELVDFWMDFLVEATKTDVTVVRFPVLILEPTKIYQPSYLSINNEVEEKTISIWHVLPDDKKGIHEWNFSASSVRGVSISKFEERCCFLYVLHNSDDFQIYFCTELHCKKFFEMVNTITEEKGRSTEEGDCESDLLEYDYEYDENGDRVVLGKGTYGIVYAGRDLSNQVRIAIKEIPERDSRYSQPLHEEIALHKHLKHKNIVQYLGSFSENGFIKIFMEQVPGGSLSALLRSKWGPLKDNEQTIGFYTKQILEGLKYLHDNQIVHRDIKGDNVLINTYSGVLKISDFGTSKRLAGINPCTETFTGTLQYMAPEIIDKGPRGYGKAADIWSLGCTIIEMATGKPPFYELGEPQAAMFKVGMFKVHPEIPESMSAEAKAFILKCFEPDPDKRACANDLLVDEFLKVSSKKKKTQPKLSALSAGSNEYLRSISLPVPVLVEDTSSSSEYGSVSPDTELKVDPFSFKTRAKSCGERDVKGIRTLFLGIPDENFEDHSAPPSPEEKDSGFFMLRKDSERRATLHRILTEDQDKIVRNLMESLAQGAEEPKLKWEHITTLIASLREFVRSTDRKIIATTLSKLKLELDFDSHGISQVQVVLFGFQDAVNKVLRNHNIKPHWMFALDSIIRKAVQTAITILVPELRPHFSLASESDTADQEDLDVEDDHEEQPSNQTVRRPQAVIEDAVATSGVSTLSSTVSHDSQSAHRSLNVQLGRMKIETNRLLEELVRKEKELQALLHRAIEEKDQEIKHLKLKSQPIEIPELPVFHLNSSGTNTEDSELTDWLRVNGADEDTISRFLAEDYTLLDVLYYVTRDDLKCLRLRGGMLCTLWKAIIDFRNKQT

Protein-tyrosine kinase 2-beta (Homo sapiens), sequence (Q14289 whole entry, looked up): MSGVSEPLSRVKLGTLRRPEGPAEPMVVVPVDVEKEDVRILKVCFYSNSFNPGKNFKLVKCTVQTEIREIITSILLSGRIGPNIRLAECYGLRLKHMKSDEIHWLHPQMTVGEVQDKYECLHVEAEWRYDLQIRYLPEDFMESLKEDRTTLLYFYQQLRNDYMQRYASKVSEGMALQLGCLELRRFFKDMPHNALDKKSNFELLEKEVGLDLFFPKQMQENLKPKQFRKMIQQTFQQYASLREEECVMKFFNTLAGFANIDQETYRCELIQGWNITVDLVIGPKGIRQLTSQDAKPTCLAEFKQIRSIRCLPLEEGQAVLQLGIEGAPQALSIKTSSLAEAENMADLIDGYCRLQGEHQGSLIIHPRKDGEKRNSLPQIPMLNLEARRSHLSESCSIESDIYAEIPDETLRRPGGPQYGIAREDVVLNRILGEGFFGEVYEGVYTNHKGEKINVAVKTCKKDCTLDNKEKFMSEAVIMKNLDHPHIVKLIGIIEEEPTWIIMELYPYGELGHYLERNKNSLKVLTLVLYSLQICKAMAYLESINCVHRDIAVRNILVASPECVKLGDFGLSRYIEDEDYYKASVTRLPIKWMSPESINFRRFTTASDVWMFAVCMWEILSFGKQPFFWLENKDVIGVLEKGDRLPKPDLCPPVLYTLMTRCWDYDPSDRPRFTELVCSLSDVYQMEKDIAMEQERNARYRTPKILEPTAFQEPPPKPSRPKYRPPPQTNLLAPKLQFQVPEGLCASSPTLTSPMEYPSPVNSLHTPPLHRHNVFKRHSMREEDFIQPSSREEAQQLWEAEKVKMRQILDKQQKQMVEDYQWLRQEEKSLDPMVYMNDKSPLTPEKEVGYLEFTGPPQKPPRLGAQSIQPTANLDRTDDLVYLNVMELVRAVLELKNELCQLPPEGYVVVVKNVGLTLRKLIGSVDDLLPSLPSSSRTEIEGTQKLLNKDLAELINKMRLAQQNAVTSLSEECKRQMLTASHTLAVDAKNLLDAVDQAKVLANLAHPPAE
Mitogen-activated protein kinase kinase kinase kinase 4, sequence (O95819 2-1239 limits assumed): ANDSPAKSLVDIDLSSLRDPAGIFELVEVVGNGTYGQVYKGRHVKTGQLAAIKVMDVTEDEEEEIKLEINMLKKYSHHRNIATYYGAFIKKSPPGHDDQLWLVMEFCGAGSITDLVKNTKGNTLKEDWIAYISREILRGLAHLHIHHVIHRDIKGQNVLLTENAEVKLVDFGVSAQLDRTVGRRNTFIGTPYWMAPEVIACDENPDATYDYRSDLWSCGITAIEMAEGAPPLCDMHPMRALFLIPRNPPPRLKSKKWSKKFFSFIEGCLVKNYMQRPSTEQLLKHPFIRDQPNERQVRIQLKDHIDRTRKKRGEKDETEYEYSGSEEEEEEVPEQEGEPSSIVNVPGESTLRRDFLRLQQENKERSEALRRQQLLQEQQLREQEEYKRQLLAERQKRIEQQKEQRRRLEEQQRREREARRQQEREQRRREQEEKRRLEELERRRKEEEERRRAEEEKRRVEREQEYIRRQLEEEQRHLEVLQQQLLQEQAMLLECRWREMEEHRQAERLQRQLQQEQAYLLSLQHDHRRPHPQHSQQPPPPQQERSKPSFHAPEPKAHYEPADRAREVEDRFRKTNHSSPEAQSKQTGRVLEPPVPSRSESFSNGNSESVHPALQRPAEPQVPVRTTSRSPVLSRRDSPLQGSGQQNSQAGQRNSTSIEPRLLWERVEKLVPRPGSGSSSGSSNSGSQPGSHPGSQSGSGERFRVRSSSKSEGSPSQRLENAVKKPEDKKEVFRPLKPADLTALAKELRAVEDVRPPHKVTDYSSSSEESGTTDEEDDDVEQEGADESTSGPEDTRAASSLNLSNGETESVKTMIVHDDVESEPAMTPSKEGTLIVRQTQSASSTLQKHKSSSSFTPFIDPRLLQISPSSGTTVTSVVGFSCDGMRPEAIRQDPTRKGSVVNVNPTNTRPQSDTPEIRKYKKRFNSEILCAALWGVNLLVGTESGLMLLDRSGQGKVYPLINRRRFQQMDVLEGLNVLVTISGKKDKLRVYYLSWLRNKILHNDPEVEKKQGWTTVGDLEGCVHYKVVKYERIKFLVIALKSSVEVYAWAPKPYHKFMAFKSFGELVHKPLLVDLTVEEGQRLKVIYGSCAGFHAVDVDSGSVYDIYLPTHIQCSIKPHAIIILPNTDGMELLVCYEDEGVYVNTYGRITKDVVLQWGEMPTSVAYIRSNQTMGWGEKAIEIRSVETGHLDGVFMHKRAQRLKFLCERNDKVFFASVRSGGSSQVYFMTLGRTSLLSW

- % of control [1]: -3.93%
Structure (SMILES): Cn1cc(-n2cnc3c(NCc4nc5cc(Cl)c(Cl)cc5[nH]4)nc(N4CCOCC4)nc32)cn1

- % of control ([2]; at 1 µM): 91%
- % of control ([2]; at 5 µM): 96%
Structure (SMILES): C=CC(=O)Nc1cccc(C(=O)Nc2ccc(Nc3cc(-c4[nH]c(SC)nc4C)ccn3)cc2)c1

- % of inhibition [3]: 43%
Structure (SMILES): Cc1ccc(-c2ccc3c(ccc4sc5c(c43)NC[C@@H](C)NC5=O)n2)cn1

Structure (SMILES): CNC(=O)Nc1ccc(-c2nc(N3CC4CCC(C3)O4)c3cnn(C4CCC5(CC4)OCCO5)c3n2)cc1
- % of inhibition [4]: 0%

Structure (SMILES): O=C(NOC[C@H](O)CO)c1ccc(F)c(F)c1Nc1ccc(I)cc1F
- % of control [5]: 81%

Structure (SMILES): CC(C)(O)[C@H](F)CN1Cc2cc(NC(=O)c3cnn4cccnc34)c(N3CCOCC3)cc2C1=O
- dTM [6]: 0.5 K
